In PMC7136958, “Targeting the pregnane X receptor using microbial metabolite mimicry” (EMBO Molecular Medicine, 2020):
Where “and” joins values, the source holds several entries; their conditions need not be identical. Equal values may be shown once.

Tests used:
PRMT1 = biological target: T1, PRMT1 (Homo sapiens, UniProt Q99873); assay: Histone methyltransferase assay (Reaction Biology); type: biochemical; settings: substrate Histone H4, replicates
T1 construct: purchased Reaction Biology Corp
Experimental: Software Tool and reprinted with permission from KINOME scan®, a division of DiscoveRx […]
The following […] assays (HDAC, SIRT1, PRMT1, PARP1, p300, pCAF) were performed by Reaction Biology Corp. FKK6 was screened at a single concentration of 10 μM in duplicate in two separate experiments. The appropriate controls for the individual assays are published. The overall […]
enzyme activity in the assay is reported as a % activity in DMSO control wells. Control IC50 […]
Briefly, for the Sirtuin (SIRT1) assay, human SIRT1 (GenBank
Accession No. NM012238) full -length N-terminal His-tag protein (MW 83.2 kDa) was purified after expression in E. coli. The reaction buffer was freshly prepared and constituted 50 mM Tris-HC l ( p H 8), 137 mM NaCl, 2.7 mM KCl, 1 mM MgCl2, and just before use, 1 mg/mL BSA and 1% DMSO was added. The substrate was a fluorogenic acetylated peptide of p53 residues 379-382 (RHKK (Ac)- AM C) . In th e multi-well format, the 2X enzyme was mixed with the reaction buffer followed by compound (in 100% DMSO) titration via Acoustic technology (Echo550; LabCyte Inc, Sunnyvale, CA) in the nanoliter range. The mixture was spun down and 2X substrate (including NAD+) was added to initiate the reaction at 30° C at 2h under seal. […]

RXR = assay: [11,12-3H(N)] 9-cis retinoic acid binding competition assay (RXR ligand binding), rat liver nuclear extracts; settings: 39.94 nM compound, 0.66 nM radioligand
Experimental: 8), 50 mM NaCl, 0.1 mM EDTA, 1 mM DTT, 1 mM PMSF, and 1% DMSO. The substrate is 3H-CoA (acetyl coenzyme A) and the incubation time is for 1 h at 30° C. The radioactivity in mixture is detected on washed filter paper using a scintillation counter. The Histone Deacetylase (HDAC) fluorescent activity assay (HDAC1-3) is based on the using 2X purified human enzyme mixed with the reaction buffer (50 mM Tris-HCl pH 8, 137 mM NaCl, 2.7 mM KCl, and 1 mM MgCl2, 1 mg/mL fresh BSA and 1% fresh DMSO) and then compounds (in 100% DMSO) are titrated in using Acoustic Technology.
The 2X HDAC substrate is a fluorogenic acetylated peptide from p53 (residues 379 - 38 2 RHKK(Ac)AMC) which is mixed in with the enzyme-compound complex and incubated for 1-2 h at 30 °C. In the development step, a proprietary developer with trichostatin A (or TMP269) is added to stop the reaction and to generate fluorescent color which is read using an EnVision Multilabel Plate Reader (Perkin Elmer) (Ex 360 nm/ Em 460 nm). For all enzyme activity assays, the percentage of enzyme activity (relative to DMSO controls) and IC50 values were calculated using GraphPad Prism 4 program (sigmoidal dose response equations).
Isolation of cell nuclei. Rat liver nuclear fraction was prepared from rat livers by the procedure established and optimized previously 19. […]

T1 sequence (Q99873 whole entry, species assumed): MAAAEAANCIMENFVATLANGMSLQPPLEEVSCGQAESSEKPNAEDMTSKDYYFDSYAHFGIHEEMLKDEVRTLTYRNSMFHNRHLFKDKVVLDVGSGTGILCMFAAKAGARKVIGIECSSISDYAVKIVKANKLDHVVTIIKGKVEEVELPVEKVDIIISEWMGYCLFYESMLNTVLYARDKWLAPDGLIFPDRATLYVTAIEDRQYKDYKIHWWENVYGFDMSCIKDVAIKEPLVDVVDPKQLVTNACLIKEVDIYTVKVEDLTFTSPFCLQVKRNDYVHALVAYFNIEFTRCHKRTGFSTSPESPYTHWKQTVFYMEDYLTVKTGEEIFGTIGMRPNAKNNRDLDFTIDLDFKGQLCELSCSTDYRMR

| Compound | % Enzyme Activity to DMSO controls (PRMT1; 10 μM) | remaining activity at 10 µM (PRMT1; read-out: % Enzyme Activity to DMSO controls) [%] | displacement of [3H]-9-cis-retinoic acid (RXR) |
| --- | --- | --- | --- |
| C#CCC(O)(c1ccncc1)c1cc2ccccc2n1S(=O)(=O)c1ccccc1 (stereo not drawn) [FKK6] | 88.77% and 78.47% and 81.3% | 86.4 |  |
| O=S(=O)(c1ccccc1)n1c(C(O)c2ccncc2)cc2ccccc21 (racemic) [FKK1] |  |  | significant displacement |
